Data on four compounds can be found in PubChem BioAssay (NCI).

Some test systems named below: BT-549 breast; UACC-62 melanoma; RPMI-8226 leukemia; DLD-1 colon; DMS 114 small cell lung; DMS 273 small cell lung; HOP-18 NSCLC; LXFL 529 NSCLC; M19-MEL melanoma; RXF-631 renal; SNB-78 CNS; XF 498 CNS.
What all share (test): NCI anticancer screen, dose series, 48 h

≈ marks a conversion by molar mass, not a printed value.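 Protocol summary: plate cells (96-well), add compound at 5 concentrations, incubate 48 h, interpolate endpoints linearly. Abbreviation: GI50, concentration required for 50% inhibition of growth. TGI is the concentration that stops growth completely.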

For `c1ccc(C2=NN2c2ccccc2)cc1`, the TGI in the assay with BT-549 breast and with UACC-62 melanoma was greater than 100 µM each time.

As to `O=Cc1cn(CCCCCCCCn2cc(C=O)c3ccccc32)c2ccccc12`, the TGI in the assay on RPMI-8226 leukemia and in the assay with UACC-62 melanoma was greater than 10 µM each time.

Regarding `O=C=C=P(c1ccccc1)(c1ccccc1)c1ccccc1`, the TGI in the assay on DLD-1 colon, in the assay with DMS 114 small cell lung, with DMS 273 small cell lung, in the assay on HOP-18 NSCLC, with LXFL 529 NSCLC and in the assay on M19-MEL melanoma was greater than 100 µM each time. Also, the TGI with RPMI-8226 leukemia is greater than 100 µM; in the assay on RXF-631 renal, greater than 100 µM; in the assay on SNB-78 CNS it was greater than 100 µM; in the assay with XF 498 CNS it was 89.7 µM.

`Cc1nc2nc(C)n(CCN3CCOCC3)c(=O)c2c(-c2cccc([N+](=O)[O-])c2)c1C(=O)CCCCCCCCCCN1CCC(c2ccccc2)(c2ccccc2)CC1`: in the assay with BT-549 breast, the GI50 was 2.33 µg/mL (≈ 2.87 µM) and the TGI amounted to 4.48 µg/mL.
